Target: T1, Leukotriene A-4 hydrolase (Homo sapiens, UniProt P09960)
T1 sequence (P09960 whole entry): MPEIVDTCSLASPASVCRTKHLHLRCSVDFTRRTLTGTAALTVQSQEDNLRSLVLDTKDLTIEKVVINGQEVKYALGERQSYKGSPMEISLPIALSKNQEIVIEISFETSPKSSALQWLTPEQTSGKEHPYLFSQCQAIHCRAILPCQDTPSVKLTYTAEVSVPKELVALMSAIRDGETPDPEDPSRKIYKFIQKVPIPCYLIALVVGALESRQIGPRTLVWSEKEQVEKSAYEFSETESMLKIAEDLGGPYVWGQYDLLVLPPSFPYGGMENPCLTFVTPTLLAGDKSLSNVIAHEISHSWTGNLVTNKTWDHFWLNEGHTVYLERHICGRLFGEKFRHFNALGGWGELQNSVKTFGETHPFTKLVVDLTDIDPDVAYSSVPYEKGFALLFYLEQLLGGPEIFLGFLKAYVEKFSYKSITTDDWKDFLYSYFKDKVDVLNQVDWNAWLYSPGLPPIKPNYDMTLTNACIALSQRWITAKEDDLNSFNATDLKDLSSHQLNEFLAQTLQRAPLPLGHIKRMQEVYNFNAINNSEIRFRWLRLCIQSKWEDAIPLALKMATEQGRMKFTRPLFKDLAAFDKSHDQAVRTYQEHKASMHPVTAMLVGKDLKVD
Experiment: Inhibition of recombinant human LTA4H Epoxide Hydrolase expressed in Escherichia coli BL21 (DE3) pLysS preincubated for 10 mins followed by addition of LTA4 as substrate measured after 15 mins by reverse-phase HPLC analysis

- IC50: > 10 µM
Compound: CN(C)Cc1cccc(S(=O)(=O)n2ccc(/C=C/C(=O)NO)c2)c1

Reference: BindingDB's records for doi:10.1021/acs.jmedchem.6b01507 (East China University of Science and Technology, 2017)
